Measured values as given in article PMC10126245 (Frontiers in Cellular and Infection Microbiology, 2023).
Converted amounts (≈) assume the structure as drawn. “And” between values parts separate entries of the source, which are not always exact repeats. Equal values may be shown once.

Experiments:
[1] = target: CT binding to GM1 receptor (Vibrio cholerae serotype O1, UniProt P01556)
[2] = tested on: CT-induced cAMP levels in CHO cell line; format: cell-based
[3] = tested on: CHO cell line; conditions: Chinese hamster
[4] = tested on: CHO cell line; test: cells; conditions: Cricetulus griseus, 24 h
[5] = in vitro; conditions: Chinese hamster
[6] = tested on: CFCF-induced fluid accumulation in ligated-ileal loops; parameters: species or system Swiss albino mice; conditions: mouse, in vivo
[7] = tested on: CFCF-induced cAMP levels in ligated-ileal loops; parameters: species or system Swiss albino mice; conditions: mouse, in vivo
[8] = tested on: CFCF induced histopathological changes in ileal loops; parameters: species or system Swiss albino mice; conditions: mouse, in vivo
[9] = tested on: CT binding to GM1; conditions: 50mM; cited from earlier work
[10] = tested on: FITC-CTB binding to Vero cells; conditions: 10µg/ml; cited from earlier work
[11] = tested on: CT-induced cAMP; conditions: 10µg/mL; cited from earlier work
[12] = tested on: CT-induced cell elongation in CHO cell line; format: cell-based

CT binding to GM1 receptor, sequence (P01556 22-124 limits assumed): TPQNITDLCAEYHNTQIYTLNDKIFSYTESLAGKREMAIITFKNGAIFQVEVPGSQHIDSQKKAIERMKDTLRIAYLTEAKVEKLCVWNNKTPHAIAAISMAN

Compound | Binding inhibition of CT to GM1 [1] [%] | Bound percent (B%) of cAMP [2] | NC1 (non-cytotoxic concentration) [3] [µg/mL] | NC2 (non-cytotoxic concentration) [3] [µg/mL] | viability [3] [%] | IC50 [4] [µg/mL] | viability [5] [%] | Mean W/L ratio [6] | Mean weight/length (W/L) ratio of ligated-ileal loops [6] | cAMP levels in ligated-ileal tissues [7] | Protection against CFCF induced histopathological changes (inflammation, edema) [8] | Binding inhibition of CT to GM1 [9] [%] | Inhibition of binding of FITC-CTB to Vero cells [10] [%] | Decrease in cAMP compared to CT control [11] [%] | Binding inhibition percentage (BI%) [1] | Protection against CT-induced cell elongation [12]
O=C(CCc1ccc(O)cc1)c1c(O)cc(O)cc1O[C@@H]1O[C@H](CO)[C@@H](O)[C@H](O)[C@H]1O [Phloridzin] | > 50 | 71% and 50% | 75 | 37.5 | 97.6 | 298 ± 3.9 (≈ 683 µM) | 94.8 | – | – | – | – | – | – | – | – | –
O=C(O)c1cc(O)c(O)c(O)c1 [Gallic acid, reference compound] | – | 80% and 60% | 25 | 12.5 | 97.9 | 103 ± 1.1 (≈ 604 µM) | 93.5 | 0.222 and 0.188 | 0.188 g/cm | 1.79% and 3.39% | indistinct amelioration | 40 | 23 | 76 | – | –
O=C(/C=C/c1ccc(O)c(O)c1)O[C@@H]1C[C@](O)(C(=O)O)C[C@@H](O)[C@H]1O [Chlorogenic acid] | > 50 | 81% and 78% | 100 | 50 | 97.2 | 398 ± 5.4 (≈ 1120 µM) | 90.5 | 0.132 and 0.176 | 0.132 g/cm and 0.176 g/cm | 1.18% and 1.89% | substantial protective activity | – | – | – | 92% and 81% | greater protective activities
O=c1oc2c(O)c(O)cc3c(=O)oc4c(O)c(O)cc1c4c23 [Ellagic acid] | > 50 | 82% and 81% | 30 | 15 | 97.5 | 116 ± 9.6 (≈ 382 µM) | 93.2 | 0.091 and 0.094 | 0.091 g/cm and 0.094 g/cm | 0.62% and 1.31% | substantial protective activity | – | – | – | 97% | greater protective activities
C[C@@H]1O[C@@H](OC[C@H]2O[C@@H](Oc3c(-c4ccc(O)c(O)c4)oc4cc(O)cc(O)c4c3=O)[C@H](O)[C@@H](O)[C@@H]2O)[C@H](O)[C@H](O)[C@H]1O [Rutin] | – | 53% and 44% | 70 | 35 | 97.6 | 287 ± 6.9 (≈ 471 µM) | 92.4 | – | – | – | – | – | – | – | 9% and 2% | –
C[C@@H]1O[C@@H](Oc2c(-c3ccc(O)c(O)c3)oc3cc(O)cc(O)c3c2=O)[C@H](O)[C@H](O)[C@H]1O [Quercetrin, reference compound] | – | 66% and 47% | 60 | 30 | 96.3 | 234 ± 3.7 (≈ 521 µM) | 91 | – | – | – | – | – | 20 | 59 | – | –
